What all share (assay): NCI anticancer screen, dose series, 48 h
The test system of test [1] is KM12 colon.
Test [2] relates to A498 renal.
The subject of test [3] is HT29 colon.
The test system of test [4] is HL-60(TB) leukemia.
The subject of test [5] is UACC-257 melanoma.
In test [6] the test system is OVCAR-3 ovarian.
Test [7] deals with SK-MEL-2 melanoma.
Test [8] relates to UACC-62 melanoma.
Test [9] deals with SNB-75 CNS.
In test [10] the test system is MCF7 breast.

The values below come from PubChem BioAssay (NCI).

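Following 48 hours of exposure in 96-well plates, responses at five concentrations were used to interpolate endpoints linearly. The concentration for 50% growth inhibition is given as GI50. Definition used: TGI = concentration required for complete inhibition of growth.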 Where only a bound is given, the exact number is not on record here.

As to `Cc1cc(N/N=C/c2nc(-c3ccc(Cl)cc3)oc2C)c2cc(Br)ccc2n1`, the GI50 is 2.21 µM in [1]; 10.4 µM in test [2]; 2.31 µM in test [3]; 2.2 µM in test [4]; 3.49 µM in test [5]; 1.96 µM in test [6]. Also, the GI50 in test [7] is 17.5 µM; in test [8], 2.02 µM. The TGI in test [1] worked out at 5.43 µM; in [2] it was 26.5 µM; in test [3], 5.99 µM; in test [4] it was 5.44 µM; in [5], 15 µM; in test [6], 3.89 µM. The TGI was 32.2 µM in [7] and 4.43 µM in [8].
For `c1cc2c3c(c1)c1cc4c(cc1c[n+]3CC2)OCO4`, the TGI in [9] is 8.09 µM; in test [1] it was 27.8 µM; in test [2], 14.9 µM; in test [3] it was 67 µM; in [4], 24.7 µM; in test [5], 13.5 µM. The TGI in test [6] is 16.2 µM; in test [7] it was 9.35 µM; in [10] it was 30.3 µM; in test [8] it was 16 µM.
With `c1ccc2c(c1)NCc1cc3ccccc3nc1O2`, the TGI in [9], in test [1], in test [2], in test [3], in [4] and in test [5] was > 100 µM throughout. In addition, the TGI in test [6], in [7], in test [10] and in test [8] was > 100 µM in each case.
With `CCOc1cc(/C=C/C(=O)C(C(=O)/C=C/c2ccc(OC(=O)CNc3nc4ccccc4[nH]3)c(OCC)c2)C(=O)CNc2nc3ccccc3[nH]2)ccc1OC(=O)CNc1nc2ccccc2[nH]1`, the GI50 in [9] was 3.73 µM; in test [1] it was 1.62 µM; in test [2] it was 1.68 µM; in test [3], 1.29 µM; in test [4], 1.62 µM; in [5], 2.85 µM. Besides, the GI50 was 2.81 µM in test [6], 3.26 µM in test [7], 1.06 µM in test [10] and 1.9 µM in [8]. In addition, the TGI in [9] was 27.9 µM; in test [1], 3.26 µM; in test [2], 3.87 µM; in [3], 2.56 µM; in test [4] it was 3.61 µM; in test [5], 8.73 µM. For the same compound, the TGI was 12.3 µM in test [6], 28.8 µM in [7], 3.56 µM in test [10] and 3.98 µM in test [8].
On to `COc1ccc(C2=[S+]C(c3ccccc3)(c3ccccc3)c3ccccc32)cc1`, for which the TGI was determined as 91.1 µM in test [9]; 31.1 µM in test [1]; 44.6 µM in [2]; 30.3 µM in test [3]; 51.1 µM in [4]; 46.9 µM in test [5]. The TGI was 43.6 µM in test [6], 33.3 µM in [7], > 100 µM in test [10] and 53.6 µM in test [8].
`O=C(N/N=C\c1cccc2ccccc12)Nc1ccccc1`: the TGI in [9], in test [1], in test [2], in test [3], in [5] and in test [6] was > 100 µM in each case. In addition, the TGI in test [7], in [10] and in test [8] was > 100 µM throughout.
On to `C/C(=N\NC(=O)c1ccc(Cl)cc1)c1nc2ncccc2[nH]1`, for which the TGI in test [9] is 17.9 µM; in [1] it was > 100 µM; in [2], > 100 µM; in test [3], > 100 µM; in test [4] it was 70.2 µM; in test [5], 79.9 µM. Also, the TGI is 81.5 µM in [6], > 100 µM in test [7], > 100 µM in test [10] and 55.4 µM in [8].
Regarding `Cc1cn(-c2cccc(NC(=O)c3ccc(C)c(Nc4nccc(-c5cccnc5)n4)c3)c2)cn1`, the GI50 was 1.59 µM in [9]; 2.1 µM in [1]; 10.9 µM in test [2]; 1.98 µM in test [3]; 4.61 µM in test [4]; 1.59 µM in test [5]. Further, the GI50 in test [6] was 1.95 µM; in [7], 2.58 µM; in test [10], 1.94 µM; in [8] it was 1.65 µM. Besides, the TGI was determined as 2.97 µM in [9]; 4.98 µM in test [1]; 23 µM in test [2]; 3.74 µM in [3]; 19.8 µM in test [4]; 3 µM in test [5]. For the same compound, the TGI was 3.84 µM in test [6], 7.83 µM in test [7], 4.74 µM in [10] and 3.35 µM in test [8].
For the compound `CCOC(=O)/C=C/c1c(C)[nH]c(=O)[nH]c1=O`, the TGI in test [9], in [1], in test [2], in [3], in test [4] and in test [5] was > 250 µM throughout. Moreover, the TGI in test [6], in [7], in [10] and in [8] was > 250 µM throughout.
On to `COc1cc(-c2ccc(N=Nc3ccc4c(S(=O)(=O)O)cc(S(=O)(=O)O)c(N)c4c3O)c(OC)c2)ccc1N=Nc1ccc2c(S(=O)(=O)O)cc(S(=O)(=O)O)c(N)c2c1O`, for which the TGI is > 100 µM in test [9]; > 100 µM in test [1]; > 100 µM in test [2]; > 100 µM in test [3]; > 62.6 µM in test [4]; > 100 µM in test [5]. Further, the TGI in test [6], in test [7], in [10] and in test [8] was > 100 µM in each case.
Take `O=C1CCC[C@H]2O[C@@H](COC(=O)c3ccccc3)C[C@H]2O1`: the TGI in test [9], in test [1], in test [2], in test [3], in test [4] and in test [5] was > 100 µM in each case. The TGI in [6], in [7], in [10] and in test [8] was > 100 µM in each case.
In the case of `Cc1ccc(Cl)cc1N=NC(=O)NNc1cc(Cl)ccc1C`, the TGI in [9] is 36.3 µM; in test [1], > 100 µM; in test [2], 48.8 µM; in test [3], 80.6 µM; in test [4], > 100 µM; in test [6], 37 µM. Also, the results for the TGI in [7], in [10] and in test [8] were 32.8 µM, 80.7 µM and 24.2 µM, respectively.
As for `COc1cccc2c1C(=O)c1c(O)c3c(c(O)c1C2=O)C[C@@](O)(C(=O)COC(=O)c1ccccc1)C[C@@H]3OC1CC(N)C(O)C(C)O1` (stereo not given in full), the GI50 in test [9] was 0.0762 µM; in test [1], 0.215 µM; in test [2], 0.0771 µM; in [3], 0.102 µM; in [4] it was 0.0679 µM; in test [5], 0.262 µM. In addition, the GI50 is 0.369 µM in test [6] and 0.563 µM in test [7]. Besides, the TGI was found to be 0.738 µM in test [9]; 1.23 µM in [1]; 0.261 µM in test [2]; 0.273 µM in [3]; 0.69 µM in [4]; 1.27 µM in [5]. The TGI in [6] is 1.42 µM; in [7], 1.99 µM.
On to `CCOC(=O)NC(Nc1cc(Cl)ccc1OC)(C(F)(F)F)C(F)(F)F`, for which the TGI in test [9], in [1], in test [2], in [3], in [4] and in test [5] was > 100 µM each time. The TGI in test [6], in [7], in [10] and in [8] was > 100 µM each time.
